Laboratory results published in patent US20090239760A1, “Method for the Identification of New Leads for Drug Candidates” (UNIVERSITY OF BASEL, priority 2006, published 2009).
pKd: −log10 of the molar value.

Legend:
[1] = biological target: T1, MAG (Mus musculus, UniProt P20917); experiment: NMR second-site screening with spin-labeled first-site ligand 2 (Jahnke method); details: H-NMR in the presence of spin-labeled analogue 2; indicates binding proximate (radius of 15 to 20 Å) to the Tempo spin label
T1 sequence (P20917 20-627): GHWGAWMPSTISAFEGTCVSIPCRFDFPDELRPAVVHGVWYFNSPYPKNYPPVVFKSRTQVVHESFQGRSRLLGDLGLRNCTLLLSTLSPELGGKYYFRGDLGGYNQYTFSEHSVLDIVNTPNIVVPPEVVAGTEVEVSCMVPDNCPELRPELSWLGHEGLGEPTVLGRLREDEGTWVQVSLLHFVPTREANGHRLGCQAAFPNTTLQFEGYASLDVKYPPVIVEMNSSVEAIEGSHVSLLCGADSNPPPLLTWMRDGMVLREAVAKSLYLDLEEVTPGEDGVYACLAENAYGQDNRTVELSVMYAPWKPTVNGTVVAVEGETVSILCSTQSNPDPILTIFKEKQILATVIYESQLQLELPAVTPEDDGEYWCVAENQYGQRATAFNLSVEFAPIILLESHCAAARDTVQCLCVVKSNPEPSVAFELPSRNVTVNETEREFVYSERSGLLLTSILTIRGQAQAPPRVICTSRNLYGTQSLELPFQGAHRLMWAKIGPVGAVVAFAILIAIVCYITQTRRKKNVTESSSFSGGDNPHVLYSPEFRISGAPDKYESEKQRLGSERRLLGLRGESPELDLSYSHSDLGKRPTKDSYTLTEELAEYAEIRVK
Text: Second-site ligands that are affected by the initial lead can be detected in different ways, including NMR based methods that involve, e.g. spin labeling the initial lead. […] Jahnke's method detects the paramagnetic relaxation enhancement on a second ligand caused by a spin-labeled first ligand. The method allows for the detection of “true” second-site ligands, which are ligands that bind to the target (1) simultaneously with and (2) in the proximity of the first ligand (“second-site screening”).
Members of a library composed of 60 divers or sub-libraries thereof, which are drug-like, soluble and synthetically easily available fragments (“second-site ligands”) binding to the target protein were identified based on their shorter relaxation time in H-NMR.

[2] = biological target: T2, Fc-MAG(d1-3) (Mus musculus, UniProt P20917); experiment: surface plasmon resonance (BIACORE 3000), Fc-MAG(d1-3) immobilized by protein A; type: binding, murine
T2 sequence (P20917 20-325 limits assumed): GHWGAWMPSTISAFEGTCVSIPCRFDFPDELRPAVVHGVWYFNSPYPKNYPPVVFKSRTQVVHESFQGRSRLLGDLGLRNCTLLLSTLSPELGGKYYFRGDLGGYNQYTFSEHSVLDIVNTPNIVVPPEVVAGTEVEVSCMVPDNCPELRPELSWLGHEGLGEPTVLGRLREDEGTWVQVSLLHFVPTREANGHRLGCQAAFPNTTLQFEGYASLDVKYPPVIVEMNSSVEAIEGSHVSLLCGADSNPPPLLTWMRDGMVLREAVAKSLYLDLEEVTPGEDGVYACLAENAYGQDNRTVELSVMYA
Method: For the in situ click chemistry experiment (Lewis, 2002; Bourne, 2004; […], 2005), Fc-MAG(d1-3) (Crocker, 1996) (8.77 μM) was incubated with a mixture of the four substituted first-site ligands 14a-d (each 40 μM) and the two substituted second-site ligands 22, 26 (each 800 μM) in phosphate buffer (pH 7.4) at 37° C. for 24 h. The different concentrations of the first- and second-site ligands reflect their affinities in the low micro- and millimolar range. […] To exclude that false positives are formed during incubation, two control experiments were performed. In the first, MAG was replaced by bovine serum albumin. In the second, no protein was added. In both experiments, no triazole formation could be observed. The protein included the Fc portion of human immunoglobulin IgG1 and the three N-terminal domains of murine MAG (for its preparation, see Crocker & Kelm (1996)). […] The KD analyses were performed at 25° C. on a BIACORE 3000 surface plasmon resonance-based optical biosensor (Biacore AB, Uppsala, Sweden). Protein A (Sigma, Basel) was immobilized onto a CM5 sensor chip (Biacore AB, research grade) using standard amine coupling. All data processing and equilibrium binding constant determinations were accomplished with Scrubber© (BioLogic Software, Campbell, Australia, Version 1.1g). […] The equilibrium binding constants KD were calculated using a 1:1 binding model. […]

O=[N+]([O-])c1ccc2[nH]ccc2c1 [compound 15, 5-nitro-1H-indole]
paramagnetic relaxation enhancement [1]: enhanced relaxation was observed
affinity ([2]; surface plasmon resonance experiment): low millimolar range

CC(=O)NC1C(O)CC(OCc2cn(CCCc3c[nH]c4ccc([N+](=O)[O-])cc34)nn2)(C(=O)O)OC1C(O)C(O)CNC(=O)c1ccccc1 [compound 27, 1-(5-nitro-1H-indol-3-yl-propyl)-4-{sodium [5-acetamido-9-benzamido-3,5,9-trideoxy-D-glycero-α-D-galacto-2-nonulopyranosynate-2-O-yl}-methyl-1,2,3]-triazole]
pKd ([2]; SPR, Fc-MAG(d1-3) immobilized by protein A, 25° C., 1:1 binding model): 6.72
